Experimental data as given in US20160250142A1, “INHALED AEROSOLIZED IMMUNO-CHEMOTHERAPY FOR THE TREATEMENT OF MDR TB” (priority 2013, published 2016).
Several values for one entry are separate records, joined by “and”; a condition that tells them apart may be missing. Equal values may be shown once. Read-outs that look alike come from different tables or passages of the source.

B1: Actimmune: Actimmune® (IFN-γ; Interferon gamma-1b), 100 μg/0.5 mL vial diluted 1:1400 (protein, UniProt P01579 24-161, looked up)
Interferon gamma: QDPYVKEAENLKKYFNAGHSDVADNGTLFLGILKNWKEESDRKIMQSQIVSFYFKLFKNFKDDQSIQKSVETIKEDMNVKFFNSNKKKRDDFEKLTNYSVTDLNVQRKAIHELIQVMAELSPAAKTGKRKRSQMLFRG

Key:
[1] = format: in vivo, female C57BL/6 mice; conditions: number of animals
Protocol: Detailed observations were recorded prior to dosing and prior to euthanasia.
All animals survived to their scheduled euthanasia time point on Day 0 (1 hour or 8 hours post dosing). All animals were normal (no clinical abnormalities) prior to dosing on Day 0 and prior to euthanasia 1 hour or 8 hours post dosing.

[2] = Plasma and lung drug levels in mice after MicroSprayer endotracheal delivery (LC/MS/MS); conditions: for Lung Levels: 8 hour (Range): Table 14 summary, dose delivered 240/150/50 μg in 100 μL; for concentration at 1 h / concentration at 8 h: female, C57BL/6, mouse; for Lung levels compared to plasma levels / Plasma and lung levels 8 hours post dose compared to 1 hour post dose: endotracheal delivery
Protocol: Observations were taken at 1 and 8 hour time points within lung tissue as well as the plasma of individual animals.
For microsprayer dosing via endotracheal administration, mice were anesthetized by Ketamine/Xylazine (K/X) sedation (50 mg/kg Ketamine and 5 mg/kg Xylazine) administered intraperitoneally (IP). […] A Bair Hugger warm air unit was used to keep animals warm during recovery from K/X anesthesia (i.e. after dosing).
On Day 0, mice were endotracheally intubated with a MicroSprayer® Aerosolizer (Penn-Century™, Inc.; Wyndmoor, Pa.) and test articles were delivered in the airways at a dose volume of 100 μL/dose at various dose levels.
Animals were used for collection of blood samples and the entire lung for plasma and drug level determinations. Each mouse was anesthetized with CO2/O2 and terminally bled via retro-orbital into tubes containing K2EDTA. Upon collection each blood sample was mixed by gentle inversion, placed on ice, and subsequently centrifuged to separate plasma. Plasma samples were processed on the day they were collected, or were snap frozen using liquid nitrogen and stored frozen (at or below −70° C.) until analyzed.
Animals in Subgroup A were used for collection of blood samples for plasma drug level determinations at the 1 hour post dose time point following Day 0 dosing; samples were collected within ±3% of target time. Animals in Subgroup B were used for collection of blood samples for plasma drug level determinations at the 8 hour post dose time point following Day 0 dosing; samples were collected within ±3% of target time (Table 8).
Immediately following each subgroups blood collection time point, each animal was euthanized using CO2 and the entire lung was collected for tissue drug level determinations (within 15 minutes after the blood sample), weighed, and snap-frozen. Lung samples were snap frozen using liquid nitrogen or dry ice and stored frozen (at or below −70° C.) until analyzed. […] Animals in Groups 1-3 had aerosol content (ng/mL), plasma content (ng/mL) and lung level (ng/g) assessed for parent using an appropriate LC/MS/MS method.

[3] = system: TB (Mycobacterium tuberculosis); conditions: reported for reference only; metronidazole MIC not established for TB; cited from earlier work
[4] = NGI impactor test of nebulized respiratory solutions (aerosol particle size); format: physicochemical; conditions: fractions by HPLC
Protocol: FIG. 1. Graphical representation of the NGI impactor test for Metronidazole respiratory solution (8 mg/mL).
FIG. 2. Graphical representation of the NGI impactor test for Amikacin respiratory solution (200 mg/mL).
FIG. 3. Graphical representation of the NGI impactor test for Levofloxacin respiratory solution (250 mg/mL).
The nebulization drug formulations were nebulized and passed through an NGI impactor (Westech Corporation). These experiments show the fraction of drug in various stages of the impactor (FIGS. 1-3). It was shown that significant amounts of the drug compounds were obtained at the different stages, which corresponds to the respirable fraction that would be deposited in the lungs. The drug fractions were analyzed by HPLC.

[5] = Human IFN-γ levels in mouse lung and plasma after aerosol delivery (ELISA); format: in vivo, female C57BL/6 mice; conditions: for IFN-g Level in mouse plasma: plasma diluted 1:2, ELISA sensitivity <2 pg/mL; for IFN-g Level in lung homogenate: mouse lung homogenized in 10 mL buffer; for IFN-g Level in lung homogenate / ng of IFN-g per gm of tissue: individual animals; for ng of IFN-g per gm of tissue / ng of IFN-g per gm of tissue, Mean: mouse lung; for ng of IFN-g per gm of tissue, Mean: mean of 3
Protocol: Actimmune® (IFN-γ; Interferon gamma-1b) was diluted in the dilution solution excipient as per manufacturer's directions. The contents of one (1) vial (100 μg/0.5 mL) were gently diluted to a final volume of 700 mL using the dilution solution excipient. This represented a 1:1400 dilution. Test articles A-C were supplied in a ready to use form and no additional formulations were required. All residual test articles were stored at room temperature (15-30° C.) or refrigerated (2-8° C.).

[6] = lung, Lung Concentration (μg/g) of Tissue, mice, IT, 1 hr, individual animals
[7] = lung, Lung Concentration, mice, IT, 1 hr, individual animals
[8] = lung, Lung levels 1 hour post dose (range), mice, endotracheal MicroSprayer, Subgroup A
[9] = lung, Lung levels 8 hour post dose (range), mice, endotracheal MicroSprayer, Subgroup B
[10] = plasma, Plasma Concentration, mice, IT, 1 hr, individual animals, nominal dose 0.48/0.3/0.1 mg/animal (delivered about 50%)
[11] = plasma, Plasma Concentration, mice, IT, 8 hr, individual animals, nominal dose 0.48/0.3/0.1 mg/animal
[12] = plasma, Plasma levels 1 hour post dose (range), mice, endotracheal MicroSprayer, Subgroup A, 3 animals
[13] = plasma, Plasma levels 8 hour post dose (range), mice, endotracheal MicroSprayer, Subgroup B, 3 animals
[14] = mice, IT, 1 hr, individual animals
[15] = mice, IT, 1 hr, individual animals, nominal dose 0.48/0.3/0.1 mg/animal (delivered about 50%)
[16] = mice, IT, 8 hr, individual animals
[17] = mice, IT, 8 hr, individual animals, nominal dose 0.48/0.3/0.1 mg/animal
[18] = mice, endotracheal MicroSprayer, Subgroup B, 3 animals

Row | Molecule | ANIMALS ALIVE ([1]; Day 0, 1 hr post dose) | ANIMALS NORMAL ([1]; Day 0, 1 hr post dose) | ANIMALS ALIVE ([1]; Day 0, 8 hr post dose) | ANIMALS NORMAL ([1]; Day 0, 8 hr post dose) | Lung Levels: 8 hour (Range) [2] | concentration at 1 h [2, 6] [ng/g] | concentration at 1 h [2, 7] [ng/g] | concentration at 1 h [2, 8] [ng/g] | concentration at 8 h [2, 9] [ng/g] | concentration at 1 h [2, 10] [ng/mL] | concentration at 8 h [2, 11] [ng/mL] | concentration at 1 h [2, 12] [ng/mL] | concentration at 8 h [2, 13] [ng/mL] | Lung Concentration [2, 14] | Lung Concentration (μg/g) of Tissue [2, 14] | Plasma Concentration [2, 15] | Lung Concentration [2, 16] | Plasma Concentration [2, 17] | Lung levels compared to plasma levels ([2]; mice) | Plasma and lung levels 8 hours post dose compared to 1 hour post dose ([2]; mice) | further results
1 | C[C@H]1COc2c(N3CCN(C)CC3)c(F)cc3c(=O)c(C(=O)O)cn1c23 [Levofloxacin] | 6 | 3 | 3 | 3 | 7590 ng/g - ng/g of lung tissue | 13800 | 2140 | 1610 to 2270 | 1200 | 556 | 53 | 534 to 815 | 53 | 2270 ng/g and 1610 ng/g | 16.9 µg/g and 10.4 µg/g | 815 ng/mL and 534 ng/mL | BQL | BQL | increased | decreased | concentration at 8 h ([2]; lung, Lung Concentration (μg/g) of Tissue, mice, IT, 8 hr, individual animals): 7560 ng/g; concentration at 8 h ([2]; lung, Lung Concentration, mice, IT, 8 hr, individual animals): 1200 ng/g; Plasma levels 8 hour post dose (range) [2, 18]: 53.0 ng/mL; Plasma levels 8 hour post dose (range) ([2]; mice, endotracheal MicroSprayer, Subgroup B, 3 animals, listed as LEVOFLOXACIN): 53 ng/mL -
2 | NCC[C@H](O)C(=O)N[C@@H]1C[C@H](N)[C@@H](O[C@H]2O[C@H](CN)[C@@H](O)[C@H](O)[C@H]2O)[C@H](O)[C@H]1O[C@H]1O[C@H](CO)[C@@H](O)[C@H](N)[C@H]1O [Amikacin] | 6 | 3 | 3 | 3 |  |  |  | 3990 to 9480 | 351 to 3060 |  |  | 2300 to 7140 | 152 to 406 | 4830 ng/g and 9480 ng/g and 3990 ng/g | 33.6 µg/g and 64.9 µg/g and 27.0 µg/g | 7140 ng/mL and 4820 ng/mL and 2300 ng/mL | 3060 ng/g and 443 ng/g and 351 ng/g | 406 ng/mL and 156 ng/mL and 152 ng/mL | higher | decreased | Reported MIC [3]: 0.5 μg/mL (500 ng/mL); Droplets produced on nebulization [4]: droplets in the respirable range; Lung Concentration (μg/g) of Tissue [2, 16]: 19.0 µg/g and 3.05 µg/g and 1.99 µg/g
3 | Cc1ncc([N+](=O)[O-])n1CCO [Metronidazole] | 6 | 3 | 3 | 3 | Not detected | 11700 | 1640 | 1070 to 1640 |  | 2290 | 42.3 | 1670 to 2290 | 42.3 | 1070 ng/g and 1270 ng/g | 6.50 µg/g and 8.27 µg/g | 1670 ng/mL and 1880 ng/mL | BQL | BQL | increased | decreased | Reported MIC [3]: 250 μg/mL in (250,000 ng/mL); Droplets produced on nebulization [4]: droplets in the respirable range; Lung levels 8 hour post dose (range) ([2]; mice, endotracheal MicroSprayer, Subgroup B): not detectable; Plasma levels 8 hour post dose (range) [2, 18]: 42.3 ng/mL -
4 | B1 | 6 | 3 | 3 | 3 |  |  |  |  |  |  |  |  |  |  |  |  |  |  |  |  | IFN-g Level in mouse plasma ([5]; 1 hr post dose): not detectable and below detectable levels (BDL) and BDL^a and BDL; IFN-g Level in mouse plasma ([5]; 1 hr post dose, listed as INTERFERON-gamma): Not Detectable; IFN-g Level in mouse plasma ([5]; 8 hr post dose): not detectable and below detectable levels (BDL) and BDL; IFN-g Level in mouse plasma ([5]; 8 hr post dose, listed as INTERFERON-gamma): Not Detectable; Plasma and lung levels 8 hours post dose compared to 1 hour post dose ([5]; mice, endotracheal delivery): decreased; IFN-g Level in lung homogenate ([5]; 1 hr post dose): 1732.7 pg/mL and 1248.4 pg/mL and 1109.4 pg/mL; IFN-g Level in lung homogenate ([5]; 8 hr post dose): 1006.2 pg/mL and 1578.0 pg/mL and 1307.7 pg/mL; ng of IFN-g per gm of tissue ([5]; 1 hr post dose): 116.8 ng per gm of tissue and 87.9 ng per gm of tissue and 75.4 ng per gm of tissue; ng of IFN-g per gm of tissue, Mean ([5]; 1 hr post dose): 93.3 ng per gm of tissue; ng of IFN-g per gm of tissue ([5]; 8 hr post dose): 58.3 ng per gm of tissue and 72.2 ng per gm of tissue and 102.6 ng per gm of tissue; ng of IFN-g per gm of tissue, Mean ([5]; 8 hr post dose): 77.7 ng per gm of tissue
